Read-outs that look alike come from different tables or passages of the source.
Columns and labels:
[1] = target: recombinant HIV-1 protease (Human immunodeficiency virus type 1 group M subtype B, UniProt P04585); assay: biochemical; type: biochemical
[2] = tested on: wild-type HIV-1 strain IIIB; assay: microbe, parasite or virus in culture; type: cell-based; settings: read-out: EC50
[3] = tested on: mutant HIV-1 with I84V/L90M mutations in the protease gene; type: cell-based
[4] = fold difference in EC50, mutant vs. wild type

SMILES | EC50 [2] | I84V/L90M fold change ([3]; I84V/L90M mutant) | I84V/L90M fold change [3, 4] | further results
COc1ccc(S(=O)(=O)N(CC(C)C)CC(O)C(CC2=CCN(CP(=O)(O)OC(C)C(=O)O)CC2)NC(=O)OC2COC3OCCC23)cc1 (stereo not drawn) | – | – | – | Ki ([1]; read-out: Ki): > 1000 pM
CC(C)CN(CC(O)C(Cc1ccc(OCP(=O)(O)OC(C)C(=O)O)cc1)NC(=O)OC1COC2OCCC12)S(=O)(=O)c1ccc(CN2CCOCC2)cc1 (stereo not drawn) | – | – | – | Ki ([1]; read-out: Ki): > 1000 pM
CC(C)CN(C[C@@H](O)[C@H](Cc1ccc(OCP(=O)(OCc2ccccc2)OC(C)C(=O)OCc2ccccc2)cc1)NC(=O)O[C@H]1CO[C@H]2OCC[C@H]21)S(=O)(=O)c1ccc(F)cc1 (stereo partly drawn) | 50 to 500 nM | + (>3 to ≦10) | – | –
Cc1ccc(C(=O)N[C@@H](Cc2ccc(OCP(=O)(OCc3ccccc3)OCc3ccccc3)cc2)[C@H](O)CN(CC(C)C)S(=O)(=O)c2ccc(N)cc2)cc1O | 50 to 500 nM | + (>3 to ≦10) | – | –
COc1ccc(S(=O)(=O)N(C[C@@H](O)[C@H](Cc2ccccc2)NC(=O)O[C@H]2CO[C@H]3OCC[C@H]32)CC(C)(C)COCP(=O)(O)O)cc1 | 500 to 5000 nM | +++ (>30) | – | –
CCOC(=O)C(C)OP(=O)(Oc1ccccc1)c1ccc(CN(C)CC(NC(=O)OC2COC3OCCC23)C(O)CN(CC(C)C)S(=O)(=O)c2ccc(OC)cc2)cc1 (stereo not drawn) | < 50 nM | – | + (>3 to ≦10) | –
COC(=O)C(C)OP(=O)(COc1ccc(CC(NC(=O)OC2COC3OCCC23)C(O)CN(CC(C)C)S(=O)(=O)c2ccc(OC)cc2)cc1)Oc1ccccc1 [drawing 658 R1=OPh R2=(R)Lac-Me] | – | – | – | Ki ([1]; Ki (pM), class symbols, Table 10): < 10 pM
CCOP(=O)(CCC1=CCN(CC(NC(=O)OC2COC3OCCC23)C(O)CN(CC(C)C)S(=O)(=O)c2ccc(OC)cc2)CC1)OCC (stereo not drawn) | < 50 nM | – | + (>3 to ≦10) | –
CCOC(=O)C(C)OP(=O)(COc1ccc(C[C@H](NC(=O)O[C@H]2CO[C@H]3OCC[C@H]32)[C@H](O)CN(CC(C)C)S(=O)(=O)c2ccc(F)cc2)cc1)Oc1ccccc1 (stereo partly drawn) | < 50 nM | + (>3 to ≦10) | – | –
COc1ccc(S(=O)(=O)N(CC(C)C)CC(O)C(Cc2ccc(C)cc2)NC(=O)OC2COC3OCCC23)cc1 (stereo not drawn) | < 50 nM | + (>3 to ≦10) | – | –
COc1ccc(S(=O)(=O)N(CC(C)C)CC(O)C(Cc2ccc(O)cc2)NC(=O)OC2COC3OCCC23)cc1 (stereo not drawn) | < 50 nM | — (≦3) | – | –
COC(=O)N[C@H](C(=O)N[C@@H](Cc1ccccc1)[C@@H](O)CN(Cc1ccc(-c2ccccn2)cc1)NC(=O)[C@@H](NC(=O)OC)C(C)(C)C)C(C)(C)C [Atazanavir, reference compound] | – | – | +++ (>30) | –
CCOP(=O)(Cc1ccc2c(c1)CCN(CC(NC(=O)OC1COC3OCCC13)C(O)CN(CC(C)C)S(=O)(=O)c1ccc(OC)cc1)C2)OCC (stereo not drawn) | – | – | + (>3 to ≦10) | –
CCOC(=O)C(C)OP(=O)(Cc1ccc2c(c1)CCN(C[C@H](NC(=O)O[C@H]1CO[C@H]3OCC[C@H]31)[C@H](O)CN(CC(C)C)S(=O)(=O)c1ccc(OC)cc1)C2)Oc1ccccc1 (stereo partly drawn) | 50 to 500 nM | – | + (>3 to ≦10) | –
CCOC(=O)C(C)OP(=O)(COc1ccc(C[C@H](NC(=O)O[C@H]2CO[C@H]3OCC[C@H]32)[C@H](O)CN(CC(C)C)S(=O)(=O)c2ccccc2)cc1)Oc1ccccc1 (stereo partly drawn) | < 50 nM | + (>3 to ≦10) | – | –
COc1ccc(S(=O)(=O)N(CCN2CCOCC2)CC(O)C(Cc2ccc(OCP(=O)(OCc3ccccc3)OCc3ccccc3)cc2)NC(=O)OC2COC3OCCC23)cc1 (stereo not drawn) | – | + (>3 to ≦10) | – | –
CC(C)CN(CC(O)C(Cc1ccccc1)NC(=O)OC1COC2OCCC12)S(=O)(=O)c1cccc(OCP(=O)(O)O)c1 (stereo not drawn) | – | + (>3 to ≦10) | – | –
COc1ccc(S(=O)(=O)N(Cc2ccccc2)CC(O)C(Cc2ccccc2)NC(=O)OC2COC3OCCC23)cc1 (stereo not drawn) | – | +++ (>30) | – | –
CCOP(=O)(CN1CC=C(CC(NC(=O)OC2COC3OCCC23)C(O)CN(CC(C)C)S(=O)(=O)c2ccc(OC)cc2)CC1)OCC (stereo not drawn) | – | – | + (>3 to ≦10) | –
CC(C)CN(CC(O)C(Cc1ccccc1)NC(=O)OC1COC2OCCC12)S(=O)(=O)c1ccc(OCP(=O)(OCc2ccccc2)OCc2ccccc2)cc1 (stereo not drawn) | – | +++ (>30) | – | –

Source: patent publication US20060115815A1 (priority 2002, published 2006)
